Experimental data: patent publication US10570140B2, “Selective inhibitors of protein arginine methyltransferase 5 (PRMT5)” (Prelude Therapeutics, Incorporated, priority 2017, dated 2020)

Assays:
Granta-519 cells = experiment: Cell proliferation assay on Granta-519 cells (CCK-8, day 10); type: cell-based; conditions: Homo sapiens, 240 h, Granta-519 cell line, read-out: Prolif. IC50
Experimental: Cell Proliferation Assay to Determine IC50 on Granta-519 Cells
Granta-519 cells were maintained in PRMI 1640 (Corning Cellgro, Catalog #: 10-040-CV) medium supplemented with 10% v/v FBS (GE Healthcare, Catalog #: SH30910.03). Compounds were dissolved in DMSO to make 10 mM stocks and stored at −20° C. Nine-point, 3-fold serial dilutions were made with DMSO with top concentration at 1 mM (working stocks).
On day of experiment, compound working stocks were further diluted at 1:50 with fresh medium in 96 well plate, and 10 μL of diluted drugs were added to a new 96 well plate for proliferation assay. Cells growing at exponential phase were spun down at 1500 rpm for 4 min and resuspend in fresh medium to reach a density of 0.5×10^6 cells/ml. 200 ul of cells were added to 96 well plate containing diluted drugs and incubated for 3 days. DMSO was used a vehicle control.
One day 3, 10 μL of Cell Counting Kit-8 (CCK-8, Jojindo, CK04-13) solution was added to a new 96 well plate. Cells incubated with drugs for 3 days were resuspended by pipetting up and down, and 100 μL of cells were transferred to 96 well plate containing CCK-8 reagent to measure viable cells. Plates were incubated in CO2 incubator for 2 hours and OD450 values were measured with a microplate reader (iMark microplate reader, Bio-Rad).
For re-plating, compound working stocks were diluted at 1:50 with fresh medium and 10 μL of diluted drugs were added to a new 96 well plate. Cells from Day 3 plate (50 ul) were added to 96 well plate containing fresh drug and additional 150 μL of fresh medium was added to reach 200 μL volume. Plate was returned to CO2 incubator and incubated for 3 more days. Viable cells measurement and re-plating were repeated on day 6, and the final viable cells measurement was taken on day 10.
Percentage of viable cells, relative to DMSO vehicle control, were calculated and plotted in Graphpad Prism ([Inhibitor] vs. normalized response−Variable slope) to determine proliferation IC50 values on day 10.

PRMT5/MEP50 complex = PRMT5/MEP50 complex (Homo sapiens (Human), UniProt O14744); experiment: PRMT5 biochemical assay (3H-SAM filter plate, histone H2A substrate); conditions: PRMT5/MEP50 5 nM, histone H2A 5 μM, SAM 1 μM; read-out: PRMT5 IC50
Sequence of PRMT5/MEP50 complex (O14744 whole entry): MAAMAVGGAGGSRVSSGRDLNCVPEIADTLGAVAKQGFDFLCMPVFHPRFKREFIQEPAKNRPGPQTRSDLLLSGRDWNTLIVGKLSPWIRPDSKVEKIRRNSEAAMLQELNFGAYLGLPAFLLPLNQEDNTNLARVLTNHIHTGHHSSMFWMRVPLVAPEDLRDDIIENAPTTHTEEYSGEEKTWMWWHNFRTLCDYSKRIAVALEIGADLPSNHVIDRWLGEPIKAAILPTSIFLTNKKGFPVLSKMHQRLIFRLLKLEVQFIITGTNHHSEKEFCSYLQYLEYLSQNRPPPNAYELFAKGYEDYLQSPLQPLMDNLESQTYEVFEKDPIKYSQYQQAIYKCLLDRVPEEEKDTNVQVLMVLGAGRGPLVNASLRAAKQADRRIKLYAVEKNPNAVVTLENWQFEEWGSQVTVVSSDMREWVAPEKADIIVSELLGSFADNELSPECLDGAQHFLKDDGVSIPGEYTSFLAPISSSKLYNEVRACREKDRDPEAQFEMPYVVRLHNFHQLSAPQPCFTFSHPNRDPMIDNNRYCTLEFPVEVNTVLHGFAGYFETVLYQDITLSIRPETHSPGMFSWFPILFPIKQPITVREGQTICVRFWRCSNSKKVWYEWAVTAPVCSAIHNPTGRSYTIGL
Sequence of PRMT5/MEP50 complex (Q9BQA1 whole entry partner): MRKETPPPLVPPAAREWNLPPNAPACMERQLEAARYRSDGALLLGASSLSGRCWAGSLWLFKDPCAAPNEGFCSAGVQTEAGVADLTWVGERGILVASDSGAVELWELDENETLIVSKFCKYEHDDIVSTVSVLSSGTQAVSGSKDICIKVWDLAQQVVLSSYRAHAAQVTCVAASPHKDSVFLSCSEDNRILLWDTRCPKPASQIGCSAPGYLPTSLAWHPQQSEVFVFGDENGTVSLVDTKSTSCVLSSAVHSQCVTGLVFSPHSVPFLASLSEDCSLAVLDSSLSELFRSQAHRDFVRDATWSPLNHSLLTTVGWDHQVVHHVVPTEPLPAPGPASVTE
Experimental: Biochemical Assay Protocol
Compounds were solubilized and 3-fold diluted in 100% DMSO. […] Standard reactions were performed in a total volume of 50 μl in assay buffer, with histone H2A (5 μM final) as substrate. To this was added the PRMT5/MEP50 complex diluted to provide a final assay concentration of 5 nM and the compounds were allowed to preincubate for 15 to 20 minutes at room temperature. The reaction was initiated by adding S-[3H-methyl]-adenosyl-L-methionine (PerkinElmer) to final concentration of 1 μM. Following a 60 minutes incubation at 30° C., the reaction was stopped by adding 100 μL of 20% TCA. Each reaction was spotted onto filter plate (MultiScreen FB Filter Plate, Millipore), and washed 5 times with PBS buffer, Scintillation fluid was added to the filter plate and read in a scintillation counter. IC50 values were determined by fitting the data to the standard 4 parameters with Hill Slope using GraphPad Prism software.

sDMA [1] = experiment: Western blot for symmetric di-methyl arginine (sDMA) IC50 in Granta cells; type: cell-based; conditions: Homo sapiens, 72 h; Granta-519 cell line, 3 days
sDMA [2] = experiment: sDMA levels in tumor samples of Granta-519 mouse xenograft (WB); type: in vivo
Experimental: (§1) Granta-519 cells was maintained in DMEM medium supplemented with 10% fetal bovine serum and 2 mM L-Glutamine at 37° C. in an atmosphere of 5% CO2 in air. Cells in exponential growth phase were harvested and 1×10^7 cells in 0.1 mL of PBS with Matrigel (1:1) were injected subcutaneously at the right lower flank region of each mouse for tumor development. The treatments were started when the mean tumor size reaches approximately 300-400 mm^3. […] Example 47 or vehicle (0.5% Na CMC+0.5% Tween80, suspension) were administered orally (QD for Example 47, QD for vehicle) at a dose of 30 mg/kg and 50 mg/kg for 19 and 16 days, respectively. Body weights and tumor size were measured every 3 to 4 days after randomization. Animals were euthanized 12 hours after last dosing, and blood and tumor samples were collected for analysis.
To measure sDMA levels in tumor samples, tumors from each mouse were weighted and homogenized in RIPA buffer supplemented with protease inhibitor (cOmplete™, EDTA-free Protease Inhibitor Cocktail, Roche). Lysate were centrifuged at 14,000 rpm for 30 min at 4° C. to remove debris. Total protein concentrations of lysate were determined by BCA assay (ThermoFisher Scientific, Catalog #: 23225). Equal amount of total proteins from each tumor were separated on SDS-PAGE gel, and sDMA levels were determined by WB as described previously.

[3] = Rat non-crossover PK study; type: in vivo
Experimental: In Vivo Pharmacokinetic Properties of Example 47.
In a rat (SD, male, non-fasted) non-crossover PK study, Example 47 was dosed at 1 mg/kg (DMA: 20% HPBCD=5:95, solution) via i.v. administration (N=3) and 1 mg/kg (0.5% Na CMC+0.5% Tween80, solution) via oral gauge (p.o.) (N=3).

[4] = Body weight in Granta-519 mouse xenograft study; type: in vivo
Experimental: as §1

Granta-519 = experiment: Tumor growth inhibition in Granta-519 mouse xenograft model; type: in vivo
Experimental: In Vivo Pharmacodynamic Effect and Tumor Growth Inhibition of Example 47 in Granta-519 Mouse Xenograft Model.
as §1

SMILES	IC50 (PRMT5/MEP50 complex) [nM]	IC50 (sDMA [1]) [nM]	IC50 (Granta-519 cells) [nM]	further results
Cc1cc([C@@H](O)[C@H]2O[C@@H](n3ccc4c(C)ncnc43)[C@H](O)[C@]2(C)O)ccc1Cl [Example 57, (2R,3S,4R,5R)-2-((R)-(4-chloro-3-methylphenyl)(hydroxy)methyl)-3-methyl-5-(4-methyl-7H-pyrrolo[2,3-d]pyrimidin-7-yl)tetrahydrofuran-3,4-diol]	11	–	913	–
C[C@@]1(O)[C@@H]([C@H](O)c2ccc(F)c(C(F)(F)F)c2)O[C@@H](n2ccc3c(N)ncnc32)[C@@H]1O [Example 63, (2R,3S,4R,5R)-5-(4-amino-7H-pyrrolo[2,3-d]pyrimidin-7-yl)-2-((R)-(4-fluoro-3-(trifluoro-methyl)phenyl)(hydroxy)methyl)-3-methyltetrahydrofuran-3,4-diol]	3	71	231	–
Cc1cc([C@@H](O)[C@H]2O[C@@H](n3ccc4c(N)ncnc43)[C@H](O)[C@]2(C)O)ccc1Cl [Example 56, (2R,3S,4R,5R)-5-(4-amino-7H-pyrrolo[2,3-d]pyrimidin-7-yl)-2-((R)-(4-chloro-3-methylphenyl)(hydroxy)methyl)-3-methyltetrahydrofuran-3,4-diol]	68	–	203	–
C#C[C@@]1(O)[C@@H](COc2ccc3ccc(N)nc3c2)O[C@@H](n2ccc3c(N)ncnc32)[C@@H]1O [Example 3, (2R,3S,4R,5R)-5-(4-amino-7H-pyrrolo[2,3-d]pyrimidin-7-yl)-2-(((2-aminoquinolin-7-yl)oxy)methyl)-3-ethynyltetrahydrofuran-3,4-diol]	1.6	44.2	–	–
Cc1ncnc2c1ccn2[C@@H]1O[C@H]([C@H](O)c2ccc(C(F)(F)F)cc2)[C@@](C)(O)[C@H]1O [Example 62, (2R,3S,4R,5R)-2-((R)-hydroxy(4-(trifluoromethyl)phenyl)methyl)-3-methyl-5-(4-methyl-7H-pyrrolo[2,3-d]pyrimidin-7-yl)tetrahydrofuran-3,4-diol]	7	415	–	–
CSC[C@H]1O[C@@H](n2ccc3c(N)ncnc32)[C@H](O)[C@]1(C)O [Example 17, (2S,3S,4R,5R)-5-(4-amino-7H-pyrrolo[2,3-d]pyrimidin-7-yl)-3-methyl-2-((methylthio)methyl)tetrahydrofuran-3,4-diol]	900	1000	200000	–
C[C@@]1(O)[C@@H]([C@H](O)c2ccc(Cl)cc2)O[C@@H](n2ccc3c(N)ncnc32)[C@@H]1O [Example 26, (2R,3S,4R,5R)-5-(4-amino-7H-pyrrolo[2,3-d]pyrimidin-7-yl)-2-((R)-(4-chlorophenyl)(hydroxy)methyl)-3-methyltetrahydrofuran-3,4-diol]	4.8	51.4	660	–
C[C@@]1(O)[C@@H](Cc2ccc(Cl)c(Cl)c2)O[C@@H](n2ccc3c(N)ncnc32)[C@@H]1O [Example 50, (2R,3S,4R,5R)-5-(4-amino-7H-pyrrolo[2,3-d]pyrimidin-7-yl)-2-(3,4-dichlorobenzyl)-3-methyltetrahydrofuran-3,4-diol]	17	9000	–	–
Cc1ncnc2c1ccn2[C@@H]1O[C@H]([C@H](O)c2ccc(Cl)c(Cl)c2)[C@@](C)(O)[C@H]1O [Example 58, (2R,3S,4R,5R)-2-((R)-(3,4-dichlorophenyl)(hydroxy)methyl)-3-methyl-5-(4-methyl-7H-pyrrolo[2,3-d]pyrimidin-7-yl)tetrahydrofuran-3,4-diol]	11	3160	10000	–
Nc1ccc2ccc(OC[C@H]3O[C@@H](n4ccc5c(N)ncnc54)[C@H](O)[C@@]3(O)C(F)(F)F)cc2n1 [Example 2, (2R,3S,4R,5R)-5-(4-amino-7H-pyrrolo[2,3-d]pyrimidin-7-yl)-2-(((2-aminoquinolin-7-yl)oxy)methyl)-3-(trifluoromethyl)tetrahydrofuran-3,4-diol]	1.9	21	–	–

These reach a lower IC50 (PRMT5/MEP50 complex). Values come first.

IC50 (PRMT5/MEP50 complex) [nM]	IC50 (sDMA [1]) [nM]	SMILES	IC50 (Granta-519 cells) [nM]	further results
1.5	31	C[C@@]1(O)[C@@H]([C@H](O)c2ccc(Cl)c(Cl)c2)O[C@@H](n2ccc3c(N)ncnc32)[C@@H]1O [Example 47, (2R,3S,4R,5R)-5-(4-amino-7H-pyrrolo[2,3-d]pyrimidin-7-yl)-2-((R)-(3,4-dichlorophenyl)(hydroxy)methyl)-3-methyltetrahydrofuran-3,4-diol]	75	sDMA in tumor (sDMA [2]; 50 mg/kg): no detectable sDMA; inhibition at 30 mg/kg (sDMA [2]; Mus musculus, Granta-519, 30 mg/kg): > 90%; half-life ([3]; blood, iv, rat (SD, male, non-fasted), 1 mg/kg i.v., average): 246 min; Vd ([3]; male, SD, blood, iv, rat, 1 mg/kg i.v., average, read-out: Vss): 3.1 L/kg; bioavailability ([3]; male, SD, blood, po, rat, 1 mg/kg p.o.): > 100%; clearance ([3]; male, SD, whole blood, iv, rat, 1 mg/kg i.v., average): 8.8 mL/min/kg; dose normalized AUC ([3]; rat, 1 mg/kg p.o., average): 3246 ng·kg·h/mL/mg; body weight loss ([4]; 30 mg/kg orally QD, 19 days): 1%; body weight loss ([4]; 50 mg/kg orally QD, 16 days): 8%; tumor growth inhibition (Granta-519; 30 mg/kg orally QD, 19 days, average (N=5)): 46%; tumor growth inhibition (Granta-519; 50 mg/kg orally QD, 16 days, average): 79%
1	46	Cc1ncnc2c1ccn2[C@@H]1O[C@H](COc2ccn3c(C)cnc3c2)[C@@](C)(O)[C@H]1O [Example 67, (2R,3S,4R,5R)-3-methyl-5-(4-methyl-7H-pyrrolo[2,3-d]pyrimidin-7-yl)-2-(((3-methylimidazo[1,2-a]pyridin-7-yl)oxy)methyl)tetrahydrofuran-3,4-diol]	–	–
0.85	1	C[C@@]1(O)[C@@H](COc2ccc3ccc(N)nc3c2)O[C@@H](n2cc(F)c3c(N)ncnc32)[C@@H]1O [Example 6, (2R,3S,4R,5R)-5-(4-amino-5-fluoro-7H-pyrrolo[2,3-d]pyrimidin-7-yl)-2-(((2-aminoquinolin-7-yl)oxy)methyl)-3-methyltetrahydrofuran-3,4-diol]	30	–
0.8	5.1	Cc1ncnc2c1ccn2[C@@H]1O[C@H](COc2ccc3cc(Br)c(N)nc3c2)[C@@](C)(O)[C@H]1O [Example 55, (2R,3S,4R,5R)-2-(((2-amino-3-bromoquinolin-7-yl)oxy)methyl)-3-methyl-5-(4-methyl-7H-pyrrolo[2,3-d]pyrimidin-7-yl)tetrahydrofuran-3,4-diol]	–	–
0.75	15	C[C@@]1(O)[C@@H](COc2ccc3ccc(N)nc3c2)O[C@@H](n2ccc3c(N)ncnc32)[C@@H]1O [Example 1, (2R,3S,4R,5R)-5-(4-amino-7H-pyrrolo[2,3-d]pyrimidin-7-yl)-2-(((2-aminoquinolin-7-yl)oxy)methyl)-3-methyltetrahydrofuran-3,4-diol]	40	–
